Test results from patent US12029217B2, “Safened compositions comprising pyridine carboxylate herbicides and isoxadifen” (Corteva Agriscience LLC, priority 2018, dated 2024).

Legend:
Format in all cases: in vivo
[1] = tested on: Amaranthus palmeri (glyphosate-resistant Palmer amaranth); assay: Greenhouse postemergence visual injury, glyphosate-resistant Palmer amaranth (AMAPA-Gly); details: Example 7
Text: (§1) Seeds of the desired test plant species were planted in a 90:10% v/v (volume/volume) mixture of PRO-MIX® BX (Premier Tech Horticulture, Quakertown, PA, USA) and PROFILE® GREENS GRADE™ (Profile Products LLC, Buffalo Grove, IL, USA) planting mixture, which typically has a pH of 5.2 to 6.2 and an organic matter content of at least 50 percent, in plastic pots with a surface area of 103.2 square centimeters (cm^2). When required to ensure good germination and healthy plants, a fungicide treatment and/or other chemical or physical treatment was applied. The plants were grown for 7-36 days (d) in a greenhouse with an approximate 14-hour (h) photo-period which was maintained at about 23° C. during the day and 22° C. during the night. Nutrients and water were added on a regular basis and supplemental lighting was provided with overhead metal halide 1000-Watt lamps as necessary. The plants were employed for testing when they reached the second or third true leaf stage.
(§2) Emulsifiable concentrates of each of each pyridine carboxylate herbicide (Compound A or Compound B) were prepared at 100 grams acid equivalent per liter (g ae/L). An aliquot of each emulsifiable concentrate was placed in a 25 mL glass vial and diluted with an aqueous mixture of 1.25% (v/v) ACTIROB® B esterified rapeseed oil (Bayer Crop Science, Research Triangle Park, NC, USA) or MSO® Concentrate with LECI-TECH® methylated soybean oil (Loveland Products, Loveland, CO, USA) to obtain concentrated stock solutions at the highest application rate for each herbicide, based upon a 12 milliliter (mL) application volume at a rate of 187 liters per hectare (L/ha). The concentrated stock solutions were further diluted with an aqueous mixture of 1.25% v/v ACTIROB® B or MSO® Concentrate with LECI-TECH® to obtain stock solutions at reduced application rates for each herbicide. Spray solutions of the herbicide combinations (Compound A or Compound B plus safener) were prepared by adding weighed amounts or aliquots of the safener to the stock solutions of Compound A or Compound B to form 12-mL spray solutions in two-way combinations.
(§3) The spray solutions were applied to the plant material with an overhead Mandel track sprayer equipped with 8002E nozzles calibrated to deliver 187 L/ha over an application area of 0.503 square meters (m^2) at a spray height of 18 inches (43 centimeters (cm)) above the average plant canopy. […]
(§4) The treated plants and control plants were placed in a greenhouse as described above and watered by sub-irrigation to prevent wash-off of the test compounds. After 20-22 d, the condition of the test plants as compared with that of the control plants was determined visually and scored on a scale of 0 to 100 percent where 0 corresponds to no injury and 100 corresponds to complete kill.

[2] = tested on: Polygonum convolvulus (wild buckwheat); assay: Greenhouse postemergence visual injury, wild buckwheat (POLCO); details: Example 6
Text: as §1, §2, §3, §4

[3] = tested on: Lolium multiflorum (Italian ryegrass); assay: Greenhouse postemergence visual injury, Italian ryegrass (LOLMU)
Text: as §1, §2
(§5) The spray solutions were applied to the plant material with an overhead Mandel track sprayer equipped with 8002E nozzles calibrated to deliver 187 L/ha over an application area of 0.503 square meters (m^2) at a spray height of 18 inches (43 centimeters (cm)) above the average plant canopy. Control plants were sprayed in the same manner with the solvent blank. All herbicide (component a) application rates are given as “g ae/ha” and all safener (component b) application rates are given as “g ai/ha.”
as §4

[4] = tested on: Abutilon theophrasti (velvetleaf); assay: Greenhouse postemergence visual injury, velvetleaf (ABUTH); details: Example 6
Text: as §1, §2, §3, §4

[5] = tested on: Triticum aestivum (winter wheat); assay: Greenhouse postemergence visual injury, winter wheat (TRZAW)
Text: as §1, §2, §5, §4

Avena fatua (wild oat) = assay: Greenhouse postemergence visual injury, wild oat (AVEFA); details: Example 6
Text: as §1, §2, §3, §4

[6] = tested on: Cyperus esculentus (nutsedge); assay: Greenhouse postemergence visual injury, nutsedge (CYPES)
Text: as §1, §2, §5, §4

[7] = tested on: Oryza sativa (common rice); assay: Greenhouse postemergence visual injury, rice (ORYSA); details: Example 6
Text: as §1, §2, §3, §4

[8] = tested on: Amaranthus tamariscinus (common water hemp); assay: Greenhouse postemergence visual injury, common water hemp (AMATA); details: Example 7
Text: as §1, §2, §3, §4

[9] = tested on: Kochia scoparia (herbicide-resistant kochia); assay: Greenhouse postemergence visual injury, herbicide-resistant kochia (KCHSC-R); details: Example 6
Text: as §1, §2, §3, §4

[10] = tested on: Sorghum vulgare (sorghum); assay: Greenhouse postemergence visual injury, sorghum (SORVU); details: Example 5
Text: as §1, §2, §5, §4

[11] = tested on: Amaranthus retroflexus (pigweed); assay: Greenhouse postemergence visual injury, pigweed (AMARE)
Text: as §1, §2, §5, §4

Kochia scoparia (kochia) = assay: Greenhouse postemergence visual injury, kochia (KCHSC); details: Example 6
Text: as §1, §2, §3, §4

[12] = tested on: Sorghum halepense (Johnson grass); assay: Greenhouse postemergence visual injury, Johnson grass (SORHA)
Text: as §1, §2, §5, §4

[13] = tested on: Eleusine indica (goosegrass); assay: Greenhouse postemergence visual injury, goosegrass (ELEIN); details: Example 7
Text: as §1, §2, §3, §4

[14] = tested on: Triticum aestivum (spring wheat); assay: Greenhouse postemergence visual injury, spring wheat (TRZAS)
Text: as §1, §2, §5, §4

[15] = tested on: Digitaria sanguinalis (large crabgrass); assay: Greenhouse postemergence visual injury, large crabgrass (DIGSA)
Text: as §1, §2, §5, §4

[16] = tested on: Cirsium arvense (Canada thistle); assay: Greenhouse postemergence visual injury, Canada thistle (CIRAR); details: Example 6
Text: as §1, §2, §3, §4

[17] = tested on: Ambrosia artemisiifolia (common ragweed); assay: Greenhouse postemergence visual injury, common ragweed (AMBEL); details: Example 7
Text: as §1, §2, §3, §4

[18] = isoxadifen-ethyl 10 g/ha, Example 7
[19] = isoxadifen-ethyl 20 g/ha, Example 6
[20] = isoxadifen-ethyl 20 g/ha, Example 7
[21] = isoxadifen-ethyl 40 g/ha, Example 6
[22] = isoxadifen-ethyl 80 g/ha, Example 6
[23] = isoxadifen-ethyl 20 g/ha, Example 2
[24] = isoxadifen-ethyl 40 g/ha, Example 2
[25] = isoxadifen-ethyl 80 g/ha, Example 2
[26] = isoxadifen-ethyl 120 g/ha, Example 2
[27] = isoxadifen-ethyl 20 g/ha, Example 4
[28] = isoxadifen-ethyl 20 g/ha, Example 5
[29] = isoxadifen-ethyl 40 g/ha, Example 4
[30] = isoxadifen-ethyl 40 g/ha, Example 5
[31] = isoxadifen-ethyl 80 g/ha, Example 4
[32] = isoxadifen-ethyl 80 g/ha, Example 5
[33] = isoxadifen-ethyl 120 g/ha, Example 4
[34] = isoxadifen-ethyl 120 g/ha, Example 5

Measured: % visual injury, Ob

CCOC(=O)C1=NOC(c2ccccc2)(c2ccccc2)C1 [Isoxadifen-ethyl, isoxadifen-ethyl]
0%: [1]; isoxadifen-ethyl 10 g/ha | [1]; isoxadifen-ethyl 20 g/ha | [2]; isoxadifen-ethyl 20 g/ha | [2]; isoxadifen-ethyl 40 g/ha | [2]; isoxadifen-ethyl 80 g/ha | [3]; [18] | [3]; [19] | [3]; [20] | [3]; [21] | [3]; [22] | [4]; isoxadifen-ethyl 20 g/ha | [4]; isoxadifen-ethyl 40 g/ha | [4]; isoxadifen-ethyl 80 g/ha | [5]; [23] | [5]; [19] | [5]; [24] | [5]; [21] | [5]; [25] | [5]; [22] | [5]; [26] | Avena fatua (wild oat); isoxadifen-ethyl 20 g/ha | Avena fatua (wild oat); isoxadifen-ethyl 40 g/ha | Avena fatua (wild oat); isoxadifen-ethyl 80 g/ha | [6]; [27] | [6]; [28] | [6]; [19] | [6]; [29] | [6]; [30] | [6]; [21] | [6]; [31] | [6]; [32] | [6]; [22] | [6]; [33] | [6]; [34] | [7]; isoxadifen-ethyl 20 g/ha | [7]; isoxadifen-ethyl 40 g/ha | [7]; isoxadifen-ethyl 80 g/ha | [8]; isoxadifen-ethyl 10 g/ha | [8]; isoxadifen-ethyl 20 g/ha | [9]; isoxadifen-ethyl 20 g/ha | [9]; isoxadifen-ethyl 40 g/ha | [9]; isoxadifen-ethyl 80 g/ha | [10]; isoxadifen-ethyl 20 g/ha | [10]; isoxadifen-ethyl 40 g/ha | [10]; isoxadifen-ethyl 80 g/ha | [10]; isoxadifen-ethyl 120 g/ha | [11]; [27] | [11]; [28] | [11]; [19] | [11]; [29] | [11]; [30] | [11]; [21] | [11]; [31] | [11]; [32] | [11]; [22] | [11]; [33] | [11]; [34] | Kochia scoparia (kochia); isoxadifen-ethyl 20 g/ha | Kochia scoparia (kochia); isoxadifen-ethyl 40 g/ha | Kochia scoparia (kochia); isoxadifen-ethyl 80 g/ha | [12]; [18] | [12]; [19] | [12]; [20] | [12]; [21] | [12]; [22] | [13]; isoxadifen-ethyl 10 g/ha | [13]; isoxadifen-ethyl 20 g/ha | [14]; isoxadifen-ethyl 10 g/ha, Example 1 | [14]; isoxadifen-ethyl 20 g/ha, Example 1 | [14]; [23] | [14]; [27] | [14]; isoxadifen-ethyl 40 g/ha, Example 1 | [14]; [24] | [14]; [29] | [14]; [25] | [14]; [31] | [14]; [26] | [14]; [33] | [15]; [18] | [15]; [19] | [15]; [20] | [15]; [21] | [15]; [22] | [16]; isoxadifen-ethyl 20 g/ha | [16]; isoxadifen-ethyl 40 g/ha | [16]; isoxadifen-ethyl 80 g/ha | [17]; isoxadifen-ethyl 10 g/ha | [17]; isoxadifen-ethyl 20 g/ha
